Measurements published in US20140135293A1, “ALLENE DERIVATIVES AS SPHINGOSINE 1-PHOSPHATE (S1P) RECEPTOR MODULATORS” (ALLERGAN, INC., priority 2012, published 2014).

Target: T1, human S1P1 receptor (Homo sapiens, UniProt P21453)
T1 construct: expressed in transfected cells; membranes used
Assay: GTP y35S binding assay for S1P1 activity
Assay type: biochemical
Conditions: membranes of cells stably expressing the S1P1 receptor, agonist potency
Description: Compounds were synthesized and tested for S1P1 activity using the GTP y^35S binding assay. These compounds may be assessed for their ability to activate or block activation of the human S1P1 receptor in cells stably expressing the S1P1 receptor.
GTP y^35S binding was measured in the medium containing (mM) HEPES 25, pH 7.4, MgCl2 10, NaCl 100, dithitothreitol 0.5, digitonin 0.003%, 0.2 nM GTP y^35S, and 5 μg membrane protein in a volume of 150 μl. Test compounds were included in the concentration range from 0.08 to 5,000 nM unless indicated otherwise. Membranes were incubated with 100 μM […] for 30 min, and subsequently with 10 μM GDP for 10 min on ice. Drug solutions and membrane were mixed, and then reactions were initiated by adding GTP y^35S and continued for 30 min at 25° C. Reaction mixtures were filtered over Whatman GF/B filters under vacuum, and washed three times with 3 mL of ice-cold buffer (HEPES 25, pH7.4, MgCl2 10 and NaCl 100). Filters were dried and mixed with scintillant, and counted for ^35S activity using a ([…]. Agonist-induced GTP y^35S binding was obtained by subtracting that in the absence of agonist. Binding data were analyzed using a non-linear regression method. In case of antagonist assay, the reaction mixture contained 10 nM […] in the presence of test antagonist at concentrations ranging from 0.08 to 5000 nM.

T1 sequence (P21453 whole entry): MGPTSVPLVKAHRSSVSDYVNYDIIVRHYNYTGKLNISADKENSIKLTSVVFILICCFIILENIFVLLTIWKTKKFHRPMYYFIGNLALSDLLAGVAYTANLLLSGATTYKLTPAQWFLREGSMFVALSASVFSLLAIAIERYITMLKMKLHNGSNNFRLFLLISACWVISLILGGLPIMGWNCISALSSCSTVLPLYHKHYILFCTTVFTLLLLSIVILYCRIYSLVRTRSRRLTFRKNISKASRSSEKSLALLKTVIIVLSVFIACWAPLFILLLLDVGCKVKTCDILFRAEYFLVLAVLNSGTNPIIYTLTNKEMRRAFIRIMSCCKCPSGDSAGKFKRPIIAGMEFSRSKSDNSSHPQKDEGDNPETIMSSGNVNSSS

Row | EC50 [nM] | Structure (SMILES)
1 | 58.4 | Cc1ccc(CC(=C=Cc2ccc(CNCCCP(=O)(O)O)cc2-c2cccs2)c2cc(F)cc(F)c2)cc1C [Compound 1, [3-({4-[3-(3,5-difluorophenyl)-4-(3,4-dimethylphenyl)buta-1,2-dien-1-yl]-3-(2-thienyl)benzyl}amino)propyl]phosphonic acid]
2 | 1640 | CCc1cc(C=C=C(Cc2ccc(C)c(C)c2)c2cc(F)cc(F)c2)ccc1CNCCCP(=O)(O)O [Compound 3, [3-({4-[3-(3,5-Difluorophenyl)-4-(3,4-dimethylphenyl)buta-1,2-dien-1-yl]-2-ethylbenzyl}amino)propyl]phosphonic acid]
3 | 58.5 | Cc1ccc(CC(=C=Cc2ccc(CNCCCP(=O)(O)O)cc2-c2ccco2)c2cc(F)cc(F)c2)cc1C [Compound 2, [3-({4-[3-(3,5-Difluorophenyl)-4-(3,4-dimethylphenyl)buta-1,2-dien-1-yl]-3-(2-furyl)benzyl}amino)propyl]phosphonic acid]
